From BindingDB's records for patent WO2022104348 (Janssen Pharmaceutica, 2022)

These compounds were tested against Mitogen-activated protein kinase kinase kinase 14 (Homo sapiens, UniProt Q99558) (assay: Inhibition of auto-phosphorylation of recombinant human NF-kappaB-inducing kinase (NIK/MAP3K14) activity).
Description: NIK/MAP3K14 auto-phosphorylation activity was measured using the AlphaScreen (ascreen) format (Perkin Elmer). All compound6 tested were dissolved in dimethyl sulfoxide (DMSO) and further dilutions were made in assay buffer. The final DMSO concentration was 0.7% (v/v) in assays. The assay buffer was 50 mM Tris pH 7.5 containing 1 mM EGTA (ethylene glycol tetraacetic acid), 1 mM DTT (dithiothreitol), 0.1 mM NasVCO4, 5 mM MgCE, and 0.01 % Tween 20. The assays were carried out in 384 well Proxiplates (Perkin Elmer). The incubations consisted of the compound, […] Adenosine-5'-triphosphate (ATP), and 1 nM NIK/MAP3K14. Incubations were initiated by the addition of GST-tagged NIK/MAP3K14 enzyme, carried out for 2 h at 25 °C and terminated by addition of stop buffer containing anti-phospho-IKK Ser176/180 antibody. Protein A Acceptor and Glutathione-Donor bead6 were added before reading using an EnVision Multilabel Plate Reader (Perkin Elmer). The signal obtained in the wells was normalized using high (full enzyme activity, 0.7% DMSO) and low controls (no enzyme activity, 0.7% DMSO, no ATP). IC50 s were determined by fitting a sigmoidal curve to % inhibition of control versus Log compound concentration.

Chain of Mitogen-activated protein kinase kinase kinase 14 (Q99558 whole entry): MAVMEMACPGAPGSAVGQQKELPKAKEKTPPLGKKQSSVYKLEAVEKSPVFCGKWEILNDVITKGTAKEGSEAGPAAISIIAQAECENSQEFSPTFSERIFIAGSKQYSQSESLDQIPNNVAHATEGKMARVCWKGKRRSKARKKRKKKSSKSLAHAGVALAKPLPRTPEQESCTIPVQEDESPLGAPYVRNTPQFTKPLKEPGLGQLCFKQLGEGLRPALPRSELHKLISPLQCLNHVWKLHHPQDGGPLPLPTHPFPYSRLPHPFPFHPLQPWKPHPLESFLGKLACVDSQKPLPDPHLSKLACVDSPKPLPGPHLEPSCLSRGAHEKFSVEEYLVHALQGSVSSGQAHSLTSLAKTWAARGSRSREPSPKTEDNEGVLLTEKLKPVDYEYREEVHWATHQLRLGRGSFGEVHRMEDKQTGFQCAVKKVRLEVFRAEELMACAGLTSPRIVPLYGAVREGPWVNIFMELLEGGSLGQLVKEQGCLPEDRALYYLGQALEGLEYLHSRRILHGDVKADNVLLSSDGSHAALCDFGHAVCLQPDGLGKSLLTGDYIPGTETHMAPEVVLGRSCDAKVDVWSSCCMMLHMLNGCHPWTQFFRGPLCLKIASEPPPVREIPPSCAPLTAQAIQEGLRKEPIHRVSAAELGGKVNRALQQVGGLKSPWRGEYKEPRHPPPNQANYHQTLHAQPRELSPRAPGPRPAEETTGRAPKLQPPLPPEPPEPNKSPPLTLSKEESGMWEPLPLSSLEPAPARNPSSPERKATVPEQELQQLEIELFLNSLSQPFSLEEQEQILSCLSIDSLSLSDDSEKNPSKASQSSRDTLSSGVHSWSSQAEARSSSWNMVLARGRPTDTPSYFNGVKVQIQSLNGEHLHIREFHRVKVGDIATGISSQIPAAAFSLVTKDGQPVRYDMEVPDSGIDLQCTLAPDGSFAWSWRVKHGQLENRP

Row | SMILES | IC50
1 | Cc1cnc2[nH]cc(-c3nc(-c4cccc([C@@]5(O)CCn6ccnc65)c4)cs3)c2n1 [WO2022104348, Example 81] | < 100 nM
2 | Cc1noc2c1CC[C@@]2(O)c1cccc(-c2csc(-c3c[nH]c4ncccc34)n2)c1 [WO2022104348, Example 126] | < 100 nM
3 | C[C@@]1(O)C[C@@](O)(c2cccc(-c3csc(-c4c[nH]c5ncccc45)n3)c2)c2ncccc21 [WO2022104348, Example 106] | > 500 nM
4 | CN1CC[C@@](O)(c2cccc(-c3nc(-c4c[nH]c5ncccc45)cs3)c2)C1=O [WO2022104348, Example 8] | < 100 nM
5 | CN1CC[C@@](O)(c2cccc(-c3nc(-c4c(Cl)cnc5[nH]ccc45)cs3)c2)C1=O [WO2022104348, Example 130] | > 500 nM
6 | O[C@@]1(c2cccc(-c3csc(-c4n[nH]c5cccnc45)n3)c2)CCn2ccnc21 [WO2022104348, Example 75] | ≤ 500 nM
7 | CN1CC[C@@](O)(c2cccc(-n3cc(-c4c[nH]c5ncccc45)nn3)c2)C1=O [WO2022104348, Example 123] | > 500 nM
8 | CN1C(=O)[C@@](O)(c2cccc(-c3csc(-c4c[nH]c5ncccc45)n3)c2)c2ncccc21 [WO2022104348, Example 91] | > 500 nM
9 | CN1C[C@](O)(c2cccc(-c3csc(-c4c[nH]c5nccnc45)n3)c2)C1=O [WO2022104348, Example 46] | > 500 nM
10 | CN1CC[C@@](O)(c2cccc(-c3cnc(-c4c[nH]c5ncccc45)n3C)c2)C1=O [WO2022104348, Example 120] | > 500 nM
11 | COc1cnc2[nH]cc(-c3nc(-c4cccc([C@]5(O)CCN(C)C5=O)c4)cs3)c2c1 [WO2022104348, Example 49] | < 100 nM
12 | Cc1ccc(-c2csc(-c3c[nH]c4nccnc34)n2)cc1[C@@]1(O)CCN(C)C1=O [WO2022104348, Example 70] | > 500 nM
13 | O[C@@]1(c2cccc(-c3csc(-c4c[nH]c5nccnc45)n3)c2)CCn2ccnc21 [WO2022104348, Example 41] | < 100 nM
14 | CN1CC[C@@](O)(c2cccc(-c3nc(-c4cc(N)nc5[nH]ccc45)cs3)c2)C1=O [WO2022104348, Example 129] | > 500 nM
15 | CN1CC[C@@](O)(c2cccc(-c3cc(-c4c[nH]c5ncccc45)co3)c2)C1=O [WO2022104348, Example 115] | > 500 nM
16 | N#Cc1cnc2[nH]cc(-c3nc(-c4cccc([C@]5(O)Cc6nccn6C5)c4)cs3)c2c1 [WO2022104348, Example 26] | < 100 nM
17 | CC1(C)Cc2cccnc2[C@]1(O)c1cccc(-c2csc(-c3c[nH]c4ncccc34)n2)c1 [WO2022104348, Example 36] | < 100 nM
18 | CN1CC[C@@](O)(c2cccc(-c3csc(-c4c[nH]c5ncc(C(=O)O)cc45)n3)c2)C1=O [WO2022104348, Example 51] | < 100 nM
